Measurements published in patent US8592629B2, “Sulfonamide derivatives as Nav 1.7 inhibitors” (Pfizer Limited, priority 2010, dated 2013).

target: T1, Nav1.7 (or SCN9A) channel (Homo sapiens, UniProt Q15858); test: Nav1.7 (hSCN9A) block in HEK cells, Ionworks Quattro automated electrophysiology; type: cell-based; conditions: Ionworks Quattro assay (IW); HEK cells stably transfected with hSCN9A; read-out: Nav1.7 EIC50 (IW)
T1 construct: expressed in transfected cells
Procedure: The ability of the compounds of formula (I) to block the Nav1.7 (or SCN9A) channel were measured using the assay described below.
Human Embryonic Kidney (HEK) cells were transfected with an hSCN9A construct using lipofectamine reagent (Invitrogen), using standard techniques. Cells stably expressing the hSCN9A constructs were identified by their resistance to G-418 (400 μg/ml). Clones were screened for expression using the whole-cell voltage-clamp technique.
HEK cells stably transfected with hSCN9A were maintained in DMEM medium supplemented with 10% heat-inactivated fetal bovine serum and 400 μg/ml G-418 in an incubator at 37° C. with a humidified atmosphere of 10% CO2. For HTS, cells were harvested from flasks by trypsinization and replated in an appropriate multi-well plate (typically 96 or 384 wells/plate) such that confluence would be achieved within 24 hours of plating. For electrophysiological studies, cells were removed from the culture flask by brief trypsinization and re-plated at low density onto glass cover slips. Cells were typically used for electrophysiological experiments within 24 to 72 hours after plating.
Electrophysiological assays were also conducted using the lonworks Quattro automated electrophysiological platform (Molecular Devices Corp). Intracellular and extracellular solutions were as described above with the following changes, 120 μg/ml amphotericin was added to the intracellular solution to perforate the membrane and allow electrical access to the cells. hSCN9A cells were grown and harvested as for PatchXpress and cells were resuspended in extracellular solution at a concentration of 1×10^6 cells/ml. The onboard liquid handling facility of the Ionworks Quattro was used for dispensing cells and application of test compounds. A voltage protocol was then applied that comprised of a voltage step to fully inactivate the sodium channels, followed by a brief hyperpolarized recovery period to allow partial recovery from inactivation for unblocked sodium channels, followed by a test depolarized voltage step to assess magnitude of inhibition by test compound. Compound effect was determined based on current amplitude difference between the pre-compound addition and post-compound addition scans.
Compounds of the Examples were tested in the assays described above and found to have the Nav1.7 EIC50 (μM) values specified in the table below. All data are derived from the PatchXpress assay unless explicitly stated otherwise.

T1 sequence (Q15858 whole entry): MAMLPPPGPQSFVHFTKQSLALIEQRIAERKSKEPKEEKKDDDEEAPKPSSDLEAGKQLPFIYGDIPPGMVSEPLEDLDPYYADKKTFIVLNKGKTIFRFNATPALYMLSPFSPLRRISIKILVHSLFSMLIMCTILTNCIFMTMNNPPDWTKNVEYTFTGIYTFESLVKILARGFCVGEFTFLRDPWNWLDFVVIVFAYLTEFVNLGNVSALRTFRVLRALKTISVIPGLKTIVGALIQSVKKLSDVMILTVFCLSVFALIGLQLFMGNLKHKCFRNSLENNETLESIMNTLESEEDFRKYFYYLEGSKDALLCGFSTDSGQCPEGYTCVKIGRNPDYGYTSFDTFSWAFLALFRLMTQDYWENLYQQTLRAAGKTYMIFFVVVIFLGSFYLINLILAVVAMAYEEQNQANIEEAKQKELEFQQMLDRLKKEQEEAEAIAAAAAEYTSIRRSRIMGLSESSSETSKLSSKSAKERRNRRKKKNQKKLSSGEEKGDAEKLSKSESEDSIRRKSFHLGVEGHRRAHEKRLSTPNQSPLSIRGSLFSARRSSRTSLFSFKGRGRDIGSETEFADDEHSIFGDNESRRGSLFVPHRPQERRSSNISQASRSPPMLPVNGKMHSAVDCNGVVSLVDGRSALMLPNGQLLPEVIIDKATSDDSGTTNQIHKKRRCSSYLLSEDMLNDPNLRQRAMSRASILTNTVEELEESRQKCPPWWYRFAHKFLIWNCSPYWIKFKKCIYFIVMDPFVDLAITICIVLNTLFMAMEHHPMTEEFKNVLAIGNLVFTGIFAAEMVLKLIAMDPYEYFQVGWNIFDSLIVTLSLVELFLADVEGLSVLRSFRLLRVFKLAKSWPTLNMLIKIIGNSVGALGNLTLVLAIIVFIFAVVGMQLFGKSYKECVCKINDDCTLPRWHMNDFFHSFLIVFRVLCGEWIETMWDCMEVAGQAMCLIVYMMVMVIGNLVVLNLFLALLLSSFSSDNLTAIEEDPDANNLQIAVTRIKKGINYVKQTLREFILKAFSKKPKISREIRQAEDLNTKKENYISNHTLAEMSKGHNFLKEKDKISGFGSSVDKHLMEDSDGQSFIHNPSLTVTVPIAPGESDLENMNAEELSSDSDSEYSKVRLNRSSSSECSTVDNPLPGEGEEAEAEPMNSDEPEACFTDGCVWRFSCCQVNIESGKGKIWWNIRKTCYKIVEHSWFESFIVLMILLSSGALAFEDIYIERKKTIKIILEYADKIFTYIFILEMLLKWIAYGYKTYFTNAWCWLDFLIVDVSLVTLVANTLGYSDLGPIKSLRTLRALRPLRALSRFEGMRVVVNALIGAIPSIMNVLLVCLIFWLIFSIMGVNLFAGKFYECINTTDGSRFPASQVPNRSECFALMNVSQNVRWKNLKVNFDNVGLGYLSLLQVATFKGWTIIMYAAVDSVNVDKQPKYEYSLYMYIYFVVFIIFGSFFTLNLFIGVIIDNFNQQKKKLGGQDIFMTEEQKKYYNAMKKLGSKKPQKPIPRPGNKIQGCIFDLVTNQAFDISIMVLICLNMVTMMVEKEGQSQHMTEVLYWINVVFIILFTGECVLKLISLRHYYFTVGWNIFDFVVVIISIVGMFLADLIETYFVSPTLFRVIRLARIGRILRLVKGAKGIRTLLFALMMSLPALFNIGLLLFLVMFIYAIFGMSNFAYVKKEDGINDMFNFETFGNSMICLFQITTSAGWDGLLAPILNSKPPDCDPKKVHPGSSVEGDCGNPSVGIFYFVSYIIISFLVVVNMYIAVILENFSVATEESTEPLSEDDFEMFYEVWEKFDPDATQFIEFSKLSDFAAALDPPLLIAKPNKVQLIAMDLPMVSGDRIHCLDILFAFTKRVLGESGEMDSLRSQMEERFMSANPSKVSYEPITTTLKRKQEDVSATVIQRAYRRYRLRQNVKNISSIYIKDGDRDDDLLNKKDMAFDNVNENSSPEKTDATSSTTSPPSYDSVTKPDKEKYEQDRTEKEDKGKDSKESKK

| SMILES | IC50 [µM] |
| --- | --- |
| COc1c(C(=O)NS(C)(=O)=O)ccc(Oc2cnc(N3CCCCC3)nc2)c1F [Example L62, 3-fluoro-2-methoxy-N-(methylsulfonyl)-4-[(2-piperidin-1-ylpyrimidin-5-yl)oxy]benzamide] | 57.4 |
| Cc1cc(Oc2cc(F)c(C(=O)NS(C)(=O)=O)cc2F)nc(C)n1 [Example 183, 4-[(2,6-dimethylpyrimidin-4-yl)oxy]-2,5-difluoro-N-(methylsulfonyl)benzamide] | > 323 |
| CS(=O)(=O)NC(=O)c1ccc(Oc2nccc3ccccc23)c(Cl)c1 [Example L36, 3-chloro-4-(isoquinolin-1-yloxy)-N-(methylsulfonyl)benzamide] | > 323 |
| Cc1cc(Oc2cc(F)c(C(=O)NS(C)(=O)=O)cc2F)ncn1 [Example 199, 2,5-difluoro-4-[(6-methylpyrimidin-4-yl)oxy]-N-(methylsulfonyl)benzamide] | > 323 |
| CS(=O)(=O)NC(=O)c1ccc(Oc2ccc3ccccc3n2)c(C#N)c1 [Example L34, 3-cyano-N-(methylsulfonyl)-4-(quinolin-2-yloxy)benzamide] | 222 |
| Cc1nccnc1Oc1cc(F)c(C(=O)NS(C)(=O)=O)cc1F [Example 189, 2,5-difluoro-4-[(3-methylpyrazin-2-yl)oxy]-N-(methylsulfonyl)benzamide] | 232 |
